From patent EP4609848A1 (I-D Actives, S.L., priority 2024, dated 2025)
In brackets after ≈: the same amount, converted by molar mass.

Assay: Phase solubility study with cyclodextrins (β-CDs, HP-β-CDs) in galega water, spectrophotometric titration
Format: physicochemical
Description: The inventors performed solubility studies in an aqueous media in the absence and presence of solvents and in the presence of increasing concentrations of different types of CDs (β-CDs and HP-β-CDs).
According to the traditional interpretation, this study was carried out using the solubility method.
On the other hand, further sea buckthorn oil solubilization tests were performed with galega water solutions containing 80 mM HP-β-cyclodextrin and another solution with 10 mM β-cyclodextrin.

Oc1ccc(C=Cc2cc(O)cc(O)c2)cc1 [Resveratrol, resveratrol]
solubility thermodynamic at 60 min (25 °C, water, thermodynamic from solid): 40 µg/mL (≈ 175 µM)
solubility of resveratrol (in absence of CDs, galega water): 25 µg/mL
